Reference: publication PMC11053681, “Gold(I) and Silver(I) Complexes Containing Hybrid Sulfonamide/Thiourea Ligands as Potential Leishmanicidal Agents” (Pharmaceutics, 2024)
Where “and” joins values, the source holds several entries; their conditions need not be identical. Equal entries are not always repeated. Entries after “also recorded” stand apart in the source; their conditions may differ. Where two headings read alike, the source gives them in different places.

Key:
[1] = Cytotoxicity assay on Vero cells (resazurin); type: cell-based, African green monkey; settings: African green monkey, Vero cells (ATCC CRL-1587), 24 h treatment
Experimental: For the experiment, Vero cells (ATCC CRL-1587) were used in Roswell Parl Memorial Institute (RPMI) medium with 10% fetal bovine serum (FBS) (RPMI 10%) and 20 μg/mL of Gentamicin. They were cultivated in culture bottles of […] and kept in an oven at 37 °C with 5% carbon dioxide (CO2). When picked or used on the day of the experiment, the cells were detached from the wall of the bottles with saline and 1X trypsin/EDTA. To find out how many cells there were in the bottle, it was diluted in Turkey liquid and then we proceeded with the counting in the Neubauer Chamber to calculate the desired concentrations. The Vero cells were plated at […] cells per well, in 96-well plates, and kept in an incubator with 5% CO2 at 37 °C for 24 h. Then, the compounds were added in triplicate, starting at a concentration of 500 µM, with serial dilution being performed up to a concentration of 3.9 µM [54]. The treatment was carried out for 24 h, and, after adding 5 µL of resazurin, the fluorescence was read using a spectrofluorometer (EnSpire Perkin-Elmer, Waltham, MA, USA).

Leishmania braziliensis = experiment: Leishmanicidal activity against promastigotes (resazurin); type: cell-based; settings: for IC50: Leishmania braziliensis, promastigote form, 24 h treatment, resazurin, read-out: IC50 L. braziliensis; for SI L. braziliensis: selectivity index = CC50 (Vero) / IC50 (L. braziliensis promastigotes)
Experimental: (§1) The Leishmania infantum and Leishmania braziliensis strains were maintained in Schneider medium supplemented with 20% of SFB (Schneider 20%), cultivated in […] bottles and stored at 28 °C in a BOD oven. For the assays, parasites at the 5th day stationary growth phase were used.
(§2) The promastigotes metacyclic form of Leishmania infantum and Leishmania braziliensis were first filtered with an insulin syringe to break up rosettes and, then, were isolated from the culture in the stationary phase by centrifugation of 400× g for 4 min at a temperature of 4 °C [53]. The supernatant was subjected to a new centrifugation, heavier, of 2000× g for 30 min, also at 4 °C. The supernatant was discarded and the cell pallet formed from this centrifugation was resuspended in 10 mL of 10% Schneider medium. The process ensured the removal of cellular debris and dead parasites, as well as possible crystals from the culture medium, so that the quality of the experiment was guaranteed. Then, the promastigotes were diluted to 1:10 in paraformaldehyde (PFA) for counting in a Neubauer Chamber, with the concentrations adjusted for each experiment.
(§3) An amount of 1 × 10^7 parasites per well was used. The parasites were plated in 96-well plates. Then, the compounds were added in triplicate, starting at a concentration of 500 µM, with serial dilutions being performed up to a concentration of 3.9 µM [53]. The treatment was carried out for 24 h and, after adding 5 µL of resazurin, the fluorescence was read using a Enspire model spectrofluorometer (Perkin-Elmer, Waltham, MA, USA).

Leishmania infantum = experiment: as above; type: cell-based; settings: for IC50: Leishmania infantum, promastigote form, 24 h treatment, resazurin, read-out: IC50 L. infantum; for SI L. infantum: selectivity index = CC50 (Vero) / IC50 (L. infantum promastigotes)
Experimental: as §1, §2, §3

[2] = tested on: RAW macrophages infected with Leishmania infantum; experiment: Infectivity test / infection rate in RAW macrophages; type: cell-based; settings: three concentrations (below IC50, IC50, above IC50), 24 h treatment
Experimental: For the infection of RAW macrophages adhered to the plates, we used parasites in the promastigote form of Leishmania infantum, in the stationary phase, in a ratio of 10:1 (promastigotes/macrophages).
Macrophages were plated in the amount of 5 × 10^4 cells per well, in 96-well plates, which were kept in a CO2 oven at 37 °C for 24 h. The parasites were plated at a concentration of 10:1. The plates were kept in a CO2 oven for 12 h until the parasites infected the cells. […] Plates were fixed with paraformol for further evaluation. Plaques were evaluated by counting parasites within 200 cells under the EVOS Cell Imaging System (Thermo Scientific, Waltham, MA, USA) microscope by staining with propidium iodide.
In view of the data obtained, the six most promising compounds (HL1^Ch, HL2^Ph, Ag3, Ag4, Ag6 and Au2) were selected for carrying out the infection rate test against the L. infantum parasite. […] This test was performed at four stages. The first step determined the percentage of the amount in 200 infected macrophages per parasite, the second determined the percentage of parasites that infects 100 cells/macrophages, the third determined the average percentage of parasites that infects 200 cells/macrophages and, finally, the fourth step indicated the infection rate, that is, the result of the amount of Leishmania per macrophage (obtained from the third step) multiplied by the percentage of infected macrophages. Figure 5 presents the graphs of the infection rates, while the other graphs can be found in Figure S7.4.

LbOYE = LbOYE (Leishmania braziliensis, UniProt A4H6Z3); experiment: Suppression of intrinsic tryptophan fluorescence of LbOYE; type: binding; settings: for Affinity of LbOYE for the compound (fluorescence quenching), in words: Hill fit for Kd not possible for these ligands
Sequence of LbOYE (A4H6Z3 entry or part of it): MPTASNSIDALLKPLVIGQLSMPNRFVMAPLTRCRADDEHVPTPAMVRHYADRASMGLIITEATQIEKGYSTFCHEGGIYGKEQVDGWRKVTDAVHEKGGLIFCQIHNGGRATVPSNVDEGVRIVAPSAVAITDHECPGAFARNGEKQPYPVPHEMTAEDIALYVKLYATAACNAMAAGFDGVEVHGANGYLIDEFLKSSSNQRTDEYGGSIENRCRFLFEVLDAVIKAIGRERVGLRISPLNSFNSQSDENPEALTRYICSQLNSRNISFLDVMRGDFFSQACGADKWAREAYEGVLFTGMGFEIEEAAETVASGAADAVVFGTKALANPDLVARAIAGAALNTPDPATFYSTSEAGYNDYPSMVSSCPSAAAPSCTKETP
Description: The recombinant LbOYE protein was produced using the methodology previously described. Briefly, the protein was expressed in strains of bacterial Escherichia coli BL21(DE3) through induction by IPTG using the pET28a:LbOYE vector. The enzyme was purified through a chromatography step of capture by nickel affinity, as the pET28a vector allows the expression of a polyhistidine fusion peptide, located at the N-terminal end of the protein. After affinity purification, the polyhistidine tail was excised by “overnight” incubation with thrombin, and the second purification step was performed using size exclusion chromatography. Purification was evaluated by SDS-PAGE and protein concentration was estimated by spectrophotometry.
The emission spectra of the intrinsic fluorescence of the tryptophan were recorded using a Shimadzu F-4500 spectrofluorometer in the range of 310–420 nm, with opening of slits of excitation and emission at 5.0 nm and λex = 295 nm. Interaction analyzes between LbOYE and ligands were performed at λmax = 333 nm.
(§4) The compounds were solubilized in DMSO and then we made successive dilutions in a Tris-HCl 25 mmol L^−1 buffer, pH 8.0, containing 100 mmol L^−1 of NaCl. For all experiments, the final concentration of DMSO was kept constant and equal to 2.5%. Solutions with increasing concentrations of ligand and constant concentration of LbOYE (1 µmol L^−1) were prepared, which were kept at 25 °C for a period of 1h before acquisition of fluorescence emission spectra.
The results were obtained from the fluorescence emission spectra of the intrinsic tryptophan probe in the presence of the compounds HL1^Ch, HL3^FPh, HL5^NO2Ph, [Au(HL1^Ch)2]Cl and [Ag(HL3^FPh)2]NO3. The bonding parameters were determined by the Hill plot, obtaining the dissociation constant (Kd) through the non-linear adjustment of the saturation curve to the experimental data. The double-log plot was used to determine the bonding constant and the number of bonding sites (n). It also allows the calculation of the bonding constant (Kb) and Kd from 1/Kb.
Equation (1)—Hill’s equation:(1) F0−F/F0=[L]/L+Kd
Equation (2)—Double-log:(2) logF0−F/F0=nlogKb−nlog1/L−(F0−F)[P0]/F
Equation (3)—Equation of Stern–Volmer:(3) F0/F=1+KSV[L]
The study of fluorescence quenching can be affected when the ligand has absorption bands that coincide with excitation and emission wavelengths of fluorescence. This interference is called the internal filter effect, which can be minimized using the procedure described by Equation (4). Fobs and Fcor are the fluorescence intensities at 333 nm measured and corrected, respectively; l represents the optical step where the absorption and emission of light occurs and C0 is the concentration of the ligand.
For the correction of the internal filter effect, were used the molar absorptivity coefficient values in the excitation (295 nm) and emission (333 nm) lengths, [λ/ε (L mol^−1 cm^−1)]; HL1^Ch (εex = 373 and εem = 117), HL3^FPh (εex = 1191 and εem = 57), HL5^NO2Ph (εex = 6162 and εem = 9124), Au1 (εex = 7045 and εem = 4008) and Ag3 (εex = 9431 and εem = 3281).

[3] = Solubility in buffer for the fluorescence experiments; type: physicochemical; settings: Tris-HCl buffer
Experimental: as §4
After the synthesis and structural characterization of the compounds, studies of interaction of the compounds and the recombinant LbOYE were carried out by fluorescence measurements.

L. infantum = tested on: L. infantum; set-up: method as in PMID 21833767, PMID 22926569; settings: conditions and methods vary; read-out: Antileishmanial activity of other compounds; cited from earlier work

In the case of `Cc1ccc(S(=O)(=O)NNC(=S)NC2CCCCC2)cc1` [HL1^Ch], the CC50 at 24 h [1] is reported as 293 µM, the IC50 (Leishmania braziliensis) is reported as 128.9 ± 0.051 µM and the “SI L. braziliensis” value (Leishmania braziliensis) is reported as 2.27. The IC50 (Leishmania infantum) was 11 ± 0.306 µM, the “SI L. infantum” value (Leishmania infantum) was 26.6 and 26.64 and the “Infection rate of L. infantum in macrophages, in words” value [2] was “considerably lowered the infection rate of the parasite even at a concentration below its IC50”. The “Affinity of LbOYE for the compound (fluorescence quenching), in words” value (LbOYE) was “lower affinity” and the “Solubility in buffer at the concentrations for the fluorescence experiments, in words” value (from here on “Solubility in buffer”) [3] was “passed this stage”.

For `Cc1ccc(S(=O)(=O)NNC(=S)Nc2ccccc2)cc1` [HL2^Ph], the CC50 at 24 h [1] was 268 µM, the IC50 (Leishmania braziliensis) was 273.5 ± 0.018 µM and the “SI L. braziliensis” value (Leishmania braziliensis) was 0.98. The IC50 (Leishmania infantum) was 48.39 ± 0.189 µM, the “SI L. infantum” value (Leishmania infantum) was 5.5 and 5.54 and the “Infection rate of L. infantum in macrophages, in words” value [2] was “the infection index was not relevant for a concentration below its IC50”.

With `Cc1ccc(S(=O)(=O)NNC(=S)Nc2ccc([N+](=O)[O-])cc2)cc1` [HL5^NO2Ph, N-(4-nitrophenyl)-2-tosylhydrazinocarbothioamide] the CC50 at 24 h [1] was 26.6 µM, the IC50 (Leishmania braziliensis) was 19.02 ± 0.012 µM and the “SI L. braziliensis” value (Leishmania braziliensis) was 1.40. The IC50 (Leishmania infantum) was 286.9 ± 0.075 µM, the “SI L. infantum” value (Leishmania infantum) was 0.09 and the Kd (LbOYE; Hill plot (n = 1), Equation (1), 25 °C, Tris-HCl pH 8.0, 2.5% DMSO, read-out: Kd * (Hill plot)) was 35 ± 2 µM. For the same compound, the “Ksv *** (Stern–Volmer constant)” value (LbOYE; Stern–Volmer, Equation (3), 25 °C) was 6.5 ± 0.4 × 10^4, the Kd (LbOYE; double log, Equation (2), Kd = 1/Kb, 25 °C, read-out: Kd ** (double log) (converted)) was 19 ± 1 µM and the “n ** (number of bonding sites)” value (LbOYE; double log, Equation (2), 25 °C) was 1.5 ± 0.1. For the same compound, the “Solubility in buffer” value [3] was “passed this stage”.

In the case of `C=CCNC(=S)NNS(=O)(=O)c1ccc(C)cc1` [HL6^Al, N-allyl-2-tosylhydrazinocarbothioamide], the CC50 at 24 h [1] is reported as 188 µM, the IC50 (Leishmania braziliensis) is reported as 313.5 ± 0.063 µM and the “SI L. braziliensis” value (Leishmania braziliensis) is reported as 0.60. For the same compound, the IC50 (Leishmania infantum) was 812.8 ± 0.515 µM, the “SI L. infantum” value (Leishmania infantum) was 0.23 and the “Solubility in buffer” value [3] was “not soluble in the buffer used for the experiment”.

For `COc1cc(NC(C)CCCN)c2ncccc2c1` (stereo not shown) [primaquine], the IC50 (L. infantum) is listed as 26.5 ± 1.2 µM.

In the case of `Cc1ccc(S(=O)(=O)NNC(=S)Nc2ccc(F)cc2)cc1` [HL3^FPh, N-(4-fluorophenyl)-2-tosylhydrazinocarbothioamide], the CC50 at 24 h [1] is reported as 292 µM, the IC50 (Leishmania braziliensis) is reported as 204.5 ± 0.018 µM and the “SI L. braziliensis” value (Leishmania braziliensis) is reported as 1.43. The IC50 (Leishmania infantum) was 201.2 ± 0.052 µM, the “SI L. infantum” value (Leishmania infantum) was 1.450 and the “Affinity of LbOYE for the compound (fluorescence quenching), in words” value (LbOYE) was “lower affinity; also recorded: low affinity”. The “Solubility in buffer” value [3] was “passed this stage”.

For `CCCCCCCCCCCCCCCCOP(=O)([O-])OCC[N+](C)(C)C` [miltefosine], the IC50 (L. infantum) is listed as 14.4 ± 1.1 µM.

For `CCP(CC)CC.[Au+].[Cl-]` [[AuCl(PEt3)]], the IC50 (L. infantum) is listed as 16.6 ± 1.03 µM.

For `CC(=O)OC[C@H]1O[C@@H]([S-])[C@H](OC(C)=O)[C@@H](OC(C)=O)[C@@H]1OC(C)=O.CCP(CC)CC.[Au+]` [auranofin], the IC50 (L. infantum) is listed as 9.68 ± 1.02 µM.

For `Cc1ccc(S(=O)(=O)NNC(=S)Nc2ccc(Cl)cc2)cc1` [HL4^ClPh, N-(4-chlorophenyl)-2-tosylhydrazinocarbothioamide], the CC50 at 24 h [1] was 16.8 µM, the IC50 (Leishmania braziliensis) was 133.8 ± 0.036 µM and the “SI L. braziliensis” value (Leishmania braziliensis) was 0.13. The IC50 (Leishmania infantum) was 108.4 ± 0.104 µM and the “SI L. infantum” value (Leishmania infantum) was 0.16.
